Laboratory results reported in PubChem BioAssay AID330 (DTP/NCI, 2004).
“And” between values parts separate entries of the source, which are not always exact repeats. Equal values may be shown once. Toxic doses and inconclusive results are not listed.

System: P388 leukemia ip, CD2F1 mice, survival T/C
Assay: NCI In Vivo Anticancer Drug Screen. Data for tumor model P388 Leukemia (intraperitoneal) in CD2F1 (CDF1) mice
Conditions: endpoint: median survival time, higher = longer survival
Summary of the method: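 Mice carrying the transplanted tumor received test compound or vehicle. Survival was recorded in each group, and the value is the treated-group measurement divided by that of the vehicle-treated control group.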

[1] = dose: 60.0 mg/kg/injection, schedule: Q01DX005 (ip), vehicle: saline with Tween-80
[2] = dose: 120.0 mg/kg/injection, schedule: Q01DX005 (ip), vehicle: saline with Tween-80
[3] = dose: 50.0 mg/kg/injection, schedule: Q01DX005 (ip), vehicle: saline
[4] = dose: 100.0 mg/kg/injection, schedule: Q01DX005 (ip), vehicle: saline
[5] = dose: 200.0 mg/kg/injection, schedule: Q01DX005 (ip), vehicle: saline
[6] = dose: 6.25 mg/kg/injection, schedule: Q01DX009 (ip), vehicle: saline with Tween-80
[7] = dose: 50.0 mg/kg/injection, schedule: Q01DX005 (ip), vehicle: saline with Tween-80
[8] = dose: 100.0 mg/kg/injection, schedule: Q01DX005 (ip), vehicle: saline with Tween-80
[9] = dose: 200.0 mg/kg/injection, schedule: Q01DX005 (ip), vehicle: saline with Tween-80
[10] = dose: 50.0 mg/kg/injection, schedule: Q01DX009 (ip), vehicle: saline
[11] = dose: 100.0 mg/kg/injection, schedule: Q01DX009 (ip), vehicle: saline
[12] = dose: 200.0 mg/kg/injection, schedule: Q01DX009 (ip), vehicle: saline
[13] = dose: 100.0 mg/kg/injection, schedule: Q01DX001 (ip), vehicle: saline with Tween-80
[14] = dose: 200.0 mg/kg/injection, schedule: Q01DX001 (ip), vehicle: saline with Tween-80
[15] = dose: 400.0 mg/kg/injection, schedule: Q01DX001 (ip), vehicle: saline with Tween-80
[16] = dose: 50.0 mg/kg/injection, schedule: Q01DX009 (ip), vehicle: Klucel (hydroxypropylcellulose) (HPC)
[17] = dose: 100.0 mg/kg/injection, schedule: Q01DX009 (ip), vehicle: Klucel (hydroxypropylcellulose) (HPC)
[18] = dose: 100.0 mg/kg/injection, schedule: Q04DX003 (ip), vehicle: saline with Tween-80
[19] = dose: 200.0 mg/kg/injection, schedule: Q04DX003 (ip), vehicle: saline with Tween-80
[20] = dose: 400.0 mg/kg/injection, schedule: Q04DX003 (ip), vehicle: saline with Tween-80

For `CC(C)NCC(O)COc1ccc(CCOC(=O)CCc2ccc(C(O)(C(F)(F)F)C(F)(F)F)cc2)cc1` (stereo unspecified), the T/C (dose: 30.0 mg/kg/injection, schedule: Q01DX005 (ip), vehicle: saline with Tween-80) was 98 % of control, the T/C [1] was 96 % of control and the T/C [2] was 102 % of control.

With `Oc1ccc2c(ccc3[nH]cnc32)c1` the T/C [3] was 98 % of control, the T/C [4] was 101 % of control and the T/C [5] was 111 % of control.

With `Nc1ccc(C(OC(=O)c2cc3ccccc3c(Cc3c(O)c(C(=O)OC(c4ccc(N)cc4)(c4ccc(N)cc4)c4ccc(N)cc4)cc4ccccc34)c2O)(c2ccc(N)cc2)c2ccc(N)cc2)cc1` the T/C [6] was 117 % of control.

For `CC1=NCC(C)c2ccccc21` (stereo unspecified), the T/C [6] was 96 % of control and the T/C (dose: 12.5 mg/kg/injection, schedule: Q01DX009 (ip), vehicle: saline with Tween-80) was 95 % of control.

`CCOc1ccc(N2CC(=O)N3CCCC(C)N3C(=O)C2)cc1` (stereo unspecified) was tested, and the T/C [7] was 101 % of control, the T/C [8] was 101 % of control and the T/C [9] was 103 % of control.

`c1ccc(N=Nc2ccc3ns[s+]c3c2)cc1` was tested, and the T/C [1] was 92 % of control, the T/C [2] was 95 % of control and the T/C (dose: 240.0 mg/kg/injection, schedule: Q01DX005 (ip), vehicle: saline with Tween-80) was 103 % of control.

`CCN(CC)CC(C)(C)C(=O)/C=C/c1ccc(/C=C/C(=O)C(C)(C)CN(CC)CC)cc1` was tested, and the T/C (dose: 7.5 mg/kg/injection, schedule: Q01DX005 (ip), vehicle: saline) was 115 % of control and 124 % of control.

With `O=C1N(CCc2ccccc2)CCCS1(=O)=O` the T/C [7] was 115 % of control and the T/C [8] was 117 % of control.

In the case of `O=c1c(Cl)c(Cl)c(=O)c2sc3cc(Cl)ccc3[nH]c1=2`, the T/C [10] is reported as 98 % of control, the T/C [11] is reported as 102 % of control and the T/C [12] is reported as 101 % of control.

For `CC(=O)OCC1OC(Nc2[nH]c(=O)nc3occc23)C(OC(C)=O)C(OC(C)=O)C1OC(C)=O` (stereo unspecified), the T/C [13] was 107 % of control, the T/C [14] was 99 % of control and the T/C [15] was 97 % of control.

For `CC(=O)[O][Pb]([O]C(C)=O)([c]1ccccc1)[c]1ccccc1`, the T/C (dose: 6.25 mg/kg/injection, schedule: Q01DX009 (ip), vehicle: Klucel (hydroxypropylcellulose) (HPC)) was 121 % of control, the T/C (dose: 12.5 mg/kg/injection, schedule: Q01DX009 (ip), vehicle: Klucel (hydroxypropylcellulose) (HPC)) was 124 % of control and the T/C (dose: 17.8 mg/kg/injection, schedule: Q01DX009 (ip), vehicle: saline with Tween-80) was 114 % of control. For the same compound, the T/C (dose: 25.0 mg/kg/injection, schedule: Q01DX009 (ip), vehicle: Klucel (hydroxypropylcellulose) (HPC)) was 119 % of control, the T/C (dose: 30.0 mg/kg/injection, schedule: Q01DX009 (ip), vehicle: Klucel (hydroxypropylcellulose) (HPC)) was 104 % of control and the T/C (dose: 40.0 mg/kg/injection, schedule: Q01DX009 (ip), vehicle: saline with Tween-80) was 123 % of control. The T/C (dose: 45.0 mg/kg/injection, schedule: Q01DX009 (ip), vehicle: Klucel (hydroxypropylcellulose) (HPC)) was 112 % of control, the T/C [16] was 120 % of control and the T/C (dose: 65.0 mg/kg/injection, schedule: Q01DX009 (ip), vehicle: Klucel (hydroxypropylcellulose) (HPC)) was 107 % of control. The T/C [17] was 123 % of control and the T/C (dose: 150.0 mg/kg/injection, schedule: Q01DX009 (ip), vehicle: Klucel (hydroxypropylcellulose) (HPC)) was 150 % of control.

`CCN(CC)CCCSCCCNc1cc(OC)cc2cccnc12` was tested, and the T/C (dose: 12.5 mg/kg/injection, schedule: Q01DX005 (ip), vehicle: saline) was 105 % of control, the T/C (dose: 25.0 mg/kg/injection, schedule: Q01DX005 (ip), vehicle: saline) was 100 % of control and the T/C [3] was 99 % of control and 91 % of control.

In the case of `CCOC(=O)c1c(N)sc2c1CCCCC2`, the T/C [18] is reported as 100 % of control, the T/C [19] is reported as 104 % of control and the T/C [20] is reported as 100 % of control.

For `c1cc2c3c(c1)c1cc4c(cc1c[n+]3CCC2)OCO4`, the T/C (dose: 3.13 mg/kg/injection, schedule: Q01DX009 (ip), vehicle: water) was 110 % of control and the T/C (dose: 25.0 mg/kg/injection, schedule: Q01DX009 (ip), vehicle: water) was 119 % of control and 120 % of control.

In the case of `CC(C)=CCCC(C)C1=C(O)C(=O)C(C)=CC1=O` (stereo unspecified), the T/C (dose: 12.5 mg/kg/injection, schedule: Q01DX005 (ip), vehicle: Klucel (hydroxypropylcellulose) (HPC)) is reported as 108 % of control.

In the case of `CCc1c(O)c2c([nH]c1=O)SC(C)(C)CC2=NCC(C)C`, the T/C [3] is reported as 93 % of control, the T/C [4] is reported as 96 % of control and the T/C [5] is reported as 94 % of control.

With `C1CNCCSCCCSCCNC1` the T/C (dose: 25.0 mg/kg/injection, schedule: Q01DX009 (ip), vehicle: saline) was 100 % of control, the T/C [10] was 98 % of control and the T/C [11] was 89 % of control. The T/C [12] was 87 % of control.

For `COC(=O)CS(=O)(=O)CC(=O)OC`, the T/C [16] was 100 % of control, the T/C [17] was 106 % of control and the T/C (dose: 200.0 mg/kg/injection, schedule: Q01DX009 (ip), vehicle: Klucel (hydroxypropylcellulose) (HPC)) was 101 % of control.

With `COc1ccc(/C=C2\CCCC3=C2N=C2SCC(=O)N2C3c2ccc(OC)cc2)cc1` (stereo unspecified) the T/C (dose: 25.0 mg/kg/injection, schedule: Q04DX003 (ip), vehicle: saline with Tween-80) was 98 % of control, the T/C (dose: 50.0 mg/kg/injection, schedule: Q04DX003 (ip), vehicle: saline with Tween-80) was 92 % of control and the T/C [18] was 90 % of control.

For `CC(C)N1NC1(C)C` (stereo unspecified), the T/C [7] was 107 % of control, the T/C [8] was 107 % of control and the T/C [9] was 100 % of control.

In the case of `COc1ccc(/C(C)=N/N=c2/sc3ccccc3n2CC(=O)O)cc1`, the T/C [13] is reported as 101 % of control, the T/C [14] is reported as 101 % of control and the T/C [15] is reported as 91 % of control.

In the case of `CC1CCC23COC(=O)C2=CCCC3C12CC(c1ccoc1)OC2=O` (stereo unspecified), the T/C (dose: 0.03 mg/kg/injection, schedule: Q01DX009 (ip), vehicle: saline) is reported as 107 % of control, the T/C (dose: 0.06 mg/kg/injection, schedule: Q01DX009 (ip), vehicle: saline) is reported as 104 % of control and the T/C (dose: 0.12 mg/kg/injection, schedule: Q01DX009 (ip), vehicle: saline) is reported as 107 % of control. For the same compound, the T/C (dose: 0.24 mg/kg/injection, schedule: Q01DX009 (ip), vehicle: saline) was 103 % of control, the T/C (dose: 0.5 mg/kg/injection, schedule: Q01DX009 (ip), vehicle: Klucel (hydroxypropylcellulose) (HPC)) was 96 % of control and the T/C (dose: 1.0 mg/kg/injection, schedule: Q01DX009 (ip), vehicle: Klucel (hydroxypropylcellulose) (HPC)) was 96 % of control. The T/C (dose: 2.0 mg/kg/injection, schedule: Q01DX009 (ip), vehicle: Klucel (hydroxypropylcellulose) (HPC)) was 98 % of control.

With `CCOC(=O)NC(NC(=O)OCC)c1cccc(F)c1` the T/C (dose: 100.0 mg/kg/injection, schedule: Q04DX003 (ip), vehicle: saline) was 99 % of control, the T/C (dose: 200.0 mg/kg/injection, schedule: Q04DX003 (ip), vehicle: saline) was 99 % of control and the T/C (dose: 400.0 mg/kg/injection, schedule: Q04DX003 (ip), vehicle: saline) was 93 % of control.

`O=NN(CCCl)C(=O)Nc1ccc(CCO)cc1` was tested, and the T/C (dose: 0.22 mg/kg/injection, schedule: Q01DX009 (ip), vehicle: saline + alcohol) was 118 % of control, the T/C (dose: 0.5 mg/kg/injection, schedule: Q01DX009 (ip), vehicle: saline + alcohol) was 154 % of control and the T/C (dose: 0.75 mg/kg/injection, schedule: Q01DX009 (ip), vehicle: saline + alcohol) was 172 % of control. The T/C (dose: 4.0 mg/kg/injection, schedule: Q01DX009 (ip), vehicle: saline) was 272 % of control, the T/C (dose: 6.0 mg/kg/injection, schedule: Q01DX009 (ip), vehicle: saline) was 272 % of control and the T/C (dose: 9.0 mg/kg/injection, schedule: Q01DX009 (ip), vehicle: saline) was 272 % of control.

`COc1ccc2c(c1)CC(=CO)CC2=O.COc1ccc2c(c1)CC/C(=C/O)C2=O.[Cu]` was tested, and the T/C (dose: 37.5 mg/kg/injection, schedule: Q01DX009 (ip), vehicle: saline with Tween-80) was 100 % of control, the T/C (dose: 75.0 mg/kg/injection, schedule: Q01DX009 (ip), vehicle: saline with Tween-80) was 90 % of control and the T/C (dose: 100.0 mg/kg/injection, schedule: Q01DX009 (ip), vehicle: saline with Tween-80) was 95 % of control. For the same compound, the T/C (dose: 150.0 mg/kg/injection, schedule: Q01DX009 (ip), vehicle: saline with Tween-80) was 109 % of control, the T/C (dose: 200.0 mg/kg/injection, schedule: Q01DX009 (ip), vehicle: saline with Tween-80) was 123 % of control and the T/C [19] was 91 % of control. For the same compound, the T/C [20] was 91 % of control.
